Here are results for eleven molecules from patent US11339161B2, “Triazolo pyridines as modulators of gamma-secretase” (Boehringer Ingelheim International GmbH, priority 2017, dated 2022).

One test concerns the target CSF1R (FMS) (Homo sapiens, UniProt P07333). In words: Z'-LYTE SelectScreen biochemical kinase assay CSF1R (FMS). The text has this: (§1) Thermo Fisher Scientific SelectScreen™ Biochemical Kinase Profiling Service Z′-LYTE™ Screening Protocol and Assay Conditions Assay Theory
(§2) The […] biochemical assay employs a fluorescence-based, coupled-enzyme format and is based on the differential sensitivity of phosphorylated and non-phosphorylated peptides to proteolytic cleavage. The peptide substrate is labeled with two fluorophores—one at each end—that make up a FRET pair. In the primary reaction, the kinase transfers the gamma-phosphate of ATP to a single tyrosine, serine or threonine residue in a synthetic FRET-peptide. In the secondary reaction, a site-specific protease recognizes and cleaves non-phosphorylated FRET-peptides. Phosphorylation of FRET-peptides suppresses cleavage by the Development Reagent. Cleavage disrupts FRET between the donor (i.e., coumarin) and acceptor (i.e., fluorescein) fluorophores on the FRET-peptide, whereas uncleaved, phosphorylated FRET-peptides maintain FRET. A ratiometric method, which calculates the ratio (Emission Ratio=Coumarin emission (445 nm)/Fluorescein emission (520 nm)) of donor emission to acceptor emission after excitation of the donor fluorophore at 400 nm, is used to quantitate reaction progress, as shown in the equation below. A significant benefit of this ratiometric method for quantitating reaction progress is the elimination of well-to-well variations in FRET-peptide concentration and signal intensities. As a result, the assay yields very high Z′-factor values (>0.7) at a low percent phosphorylation. Both cleaved and uncleaved FRET-peptides contribute to the fluorescence signals and therefore to the Emission Ratio. The extent of phosphorylation of the FRET-peptide can be calculated from the Emission Ratio. The Emission Ratio will remain low if the FRET-peptide is phosphorylated (i.e., no kinase inhibition) and will be high if the FRET-peptide is non-phosphorylated (i.e., kinase inhibition).
(§3) The Test Compounds are screened in 1% DMSO (final) in the well. For 10 point titrations, 3-fold serial dilutions are conducted from the starting concentration of the customer's choosing.
(§4) All Peptide/Kinase Mixtures are diluted to a 2× working concentration in the appropriate Kinase Buffer (see section Kinase Specific Assay Conditions for a complete description).
(§5) All ATP Solutions are diluted to a 4× working concentration in Kinase Buffer (50 mM HEPES pH 7.5, 0.01% BRIJ-35, 10 mM MgCl2, 1 mM EGTA). ATP Km apparent is previously determined using a Z″-LYTE assay.
(§6) The Development Reagent is diluted in Development Buffer (see section Kinase-Specific Assay Conditions—Direct and Cascade for a complete description).
(§7) Bar-coded Corning, low volume NBS, black 384-well plate (Corning Cat. #4514) • 1. 100 nL—100× Test Compound in 100% DMSO • 2. 2.4 μL—Kinase buffer • 3. 5 μL—2× Peptide/Kinase Mixture • 4. 2.5 μL—4×ATP Solution • 5. 30—second plate shake • 6. 60—minute Kinase Reaction incubation at room temperature • 7. 5 μL—Development Reagent Solution • 8. 30—second plate shake • 9. 60—minute Development Reaction incubation at room temperature • 10. Read on fluorescence plate reader and analyze the data Z′-LYTE Assay Controls
(§8) SelectScreen Kinase Profiling Service uses XLfit from IDBS. The dose response curve is curve fit to model number 205 (sigmoidal dose-response model).
The 2×CSF1R (FMS)/Tyr 01 mixture is prepared in 50 mM HEPES pH 7.5, 0.01% BRIJ-35, 10 mM MgCl2, 1 mM EGTA. The final 10 μL Kinase Reaction consists of 0.2-40 ng CSF1R (FMS) and 2 μM Tyr 01 in 50 mM HEPES pH 7.5, 0.01% BRIJ-35, 10 mM MgCl2, 1 mM EGTA. After the 1 hour Kinase Reaction incubation, 5 μL of a 1:256 dilution of Development Reagent B is added.

In the next test the target is MAP4K4 (HGK) (Homo sapiens, UniProt O95819). In words: Z'-LYTE SelectScreen biochemical kinase assay MAP4K4 (HGK).
Chain of MAP4K4 (HGK) (O95819 whole entry): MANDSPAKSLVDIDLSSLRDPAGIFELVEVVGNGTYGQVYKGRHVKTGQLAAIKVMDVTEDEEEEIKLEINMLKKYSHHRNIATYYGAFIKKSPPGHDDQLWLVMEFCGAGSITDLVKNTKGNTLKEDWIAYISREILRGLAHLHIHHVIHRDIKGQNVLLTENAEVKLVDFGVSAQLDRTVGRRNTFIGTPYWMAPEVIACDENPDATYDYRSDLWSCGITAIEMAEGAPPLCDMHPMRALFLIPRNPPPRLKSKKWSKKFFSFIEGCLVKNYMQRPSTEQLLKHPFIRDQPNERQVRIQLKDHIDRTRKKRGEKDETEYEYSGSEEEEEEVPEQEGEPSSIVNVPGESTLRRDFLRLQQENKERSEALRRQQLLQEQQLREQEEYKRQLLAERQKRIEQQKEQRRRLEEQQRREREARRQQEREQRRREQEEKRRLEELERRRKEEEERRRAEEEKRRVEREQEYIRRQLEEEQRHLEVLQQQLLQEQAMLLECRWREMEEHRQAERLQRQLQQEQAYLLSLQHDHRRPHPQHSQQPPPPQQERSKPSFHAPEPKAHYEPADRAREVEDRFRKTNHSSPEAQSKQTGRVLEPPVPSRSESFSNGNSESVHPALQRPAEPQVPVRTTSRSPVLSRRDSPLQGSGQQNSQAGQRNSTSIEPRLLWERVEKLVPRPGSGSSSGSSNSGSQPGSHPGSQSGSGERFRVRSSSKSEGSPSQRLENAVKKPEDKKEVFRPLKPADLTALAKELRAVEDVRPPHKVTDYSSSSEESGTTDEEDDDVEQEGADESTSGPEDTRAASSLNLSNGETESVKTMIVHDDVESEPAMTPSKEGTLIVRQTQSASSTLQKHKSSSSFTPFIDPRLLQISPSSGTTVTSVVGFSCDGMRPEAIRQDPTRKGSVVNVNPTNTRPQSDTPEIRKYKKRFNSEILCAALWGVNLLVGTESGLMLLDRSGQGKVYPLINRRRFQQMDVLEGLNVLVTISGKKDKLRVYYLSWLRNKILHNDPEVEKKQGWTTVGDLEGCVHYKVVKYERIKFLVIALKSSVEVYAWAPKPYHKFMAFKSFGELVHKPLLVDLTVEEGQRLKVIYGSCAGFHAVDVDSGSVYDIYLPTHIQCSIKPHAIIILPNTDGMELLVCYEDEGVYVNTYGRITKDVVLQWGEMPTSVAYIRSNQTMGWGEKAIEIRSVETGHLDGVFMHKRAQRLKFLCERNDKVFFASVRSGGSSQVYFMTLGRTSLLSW
Excerpt: as §1, §2, §3, §4, §5, §6, §7, §8
The 2×MAP4K4 (HGK)/Ser/Thr 07 mixture is prepared in 50 mM HEPES pH 7.5, 0.01% BRIJ-35, 10 mM MgCl2, 1 mM EGTA. The final 10 μL Kinase Reaction consists of 0.36-1.82 ng MAP4K4 (HGK) and 2 μM Ser/Thr 07 in 50 mM HEPES pH 7.5, 0.01% BRIJ-35, 10 mM MgCl2, 1 mM EGTA. After the 1 hour Kinase Reaction incubation, 5 μL of a 1:45000 dilution of Development Reagent A is added.

The target of another test is T1, AURKA (Aurora A) (Homo sapiens, UniProt O14965).
T1 sequence (O14965 1-403): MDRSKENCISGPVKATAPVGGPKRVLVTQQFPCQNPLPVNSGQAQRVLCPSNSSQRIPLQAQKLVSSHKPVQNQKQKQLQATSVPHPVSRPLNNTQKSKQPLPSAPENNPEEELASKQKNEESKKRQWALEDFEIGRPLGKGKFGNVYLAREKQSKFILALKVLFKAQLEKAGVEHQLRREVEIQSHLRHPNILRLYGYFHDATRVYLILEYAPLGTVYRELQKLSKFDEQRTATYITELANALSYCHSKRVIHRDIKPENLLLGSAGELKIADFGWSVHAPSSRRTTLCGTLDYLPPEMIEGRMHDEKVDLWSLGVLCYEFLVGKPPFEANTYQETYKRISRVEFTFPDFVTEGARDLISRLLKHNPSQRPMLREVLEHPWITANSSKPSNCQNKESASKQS
Kind of test: Z'-LYTE SelectScreen biochemical kinase assay AURKA (Aurora A).
Excerpt: as §1, §2, §3, §4, §5, §6, §7, §8
The 2×AURKA (Aurora A)/Ser/Thr 01 mixture is prepared in 50 mM HEPES pH 7.5, 0.01% BRIJ-35, 10 mM MgCl2, 1 mM EGTA. The final 10 μL Kinase Reaction consists of 0.91-8.56 ng AURKA (Aurora A) and 2 μM Ser/Thr 01 in 50 mM HEPES pH 7.5, 0.01% BRIJ-35, 10 mM MgCl2, 1 mM EGTA. After the 1 hour Kinase Reaction incubation, 5 μL of a 1:4096 dilution of Development Reagent A is added.

[1] abbreviates: 10 μmolar compound concentration, ATP at Km app, read-out: CSF1R (FMS) inhibition.
Setting [2] is: read-out: % Inhibition mean CSF1R (FMS).
The mark [3] stands for this setting: 10 μmolar compound concentration, ATP at Km app, read-out: MAP4K4 (HGK) inhibition.
The mark [4] stands for this setting: read-out: % Inhibition mean MAP4K4 (HGK).
The mark [5] stands for this setting: 10 μmolar compound concentration, ATP at Km app, read-out: AURKA (Aurora A) inhibition.
Setting [6] is: read-out: % Inhibition mean AURKA (Aurora A).

Molecules are shown by their SMILES. Read-outs that look alike come from different tables or passages of the source.

Chain of CSF1R (FMS) (P07333 20-972): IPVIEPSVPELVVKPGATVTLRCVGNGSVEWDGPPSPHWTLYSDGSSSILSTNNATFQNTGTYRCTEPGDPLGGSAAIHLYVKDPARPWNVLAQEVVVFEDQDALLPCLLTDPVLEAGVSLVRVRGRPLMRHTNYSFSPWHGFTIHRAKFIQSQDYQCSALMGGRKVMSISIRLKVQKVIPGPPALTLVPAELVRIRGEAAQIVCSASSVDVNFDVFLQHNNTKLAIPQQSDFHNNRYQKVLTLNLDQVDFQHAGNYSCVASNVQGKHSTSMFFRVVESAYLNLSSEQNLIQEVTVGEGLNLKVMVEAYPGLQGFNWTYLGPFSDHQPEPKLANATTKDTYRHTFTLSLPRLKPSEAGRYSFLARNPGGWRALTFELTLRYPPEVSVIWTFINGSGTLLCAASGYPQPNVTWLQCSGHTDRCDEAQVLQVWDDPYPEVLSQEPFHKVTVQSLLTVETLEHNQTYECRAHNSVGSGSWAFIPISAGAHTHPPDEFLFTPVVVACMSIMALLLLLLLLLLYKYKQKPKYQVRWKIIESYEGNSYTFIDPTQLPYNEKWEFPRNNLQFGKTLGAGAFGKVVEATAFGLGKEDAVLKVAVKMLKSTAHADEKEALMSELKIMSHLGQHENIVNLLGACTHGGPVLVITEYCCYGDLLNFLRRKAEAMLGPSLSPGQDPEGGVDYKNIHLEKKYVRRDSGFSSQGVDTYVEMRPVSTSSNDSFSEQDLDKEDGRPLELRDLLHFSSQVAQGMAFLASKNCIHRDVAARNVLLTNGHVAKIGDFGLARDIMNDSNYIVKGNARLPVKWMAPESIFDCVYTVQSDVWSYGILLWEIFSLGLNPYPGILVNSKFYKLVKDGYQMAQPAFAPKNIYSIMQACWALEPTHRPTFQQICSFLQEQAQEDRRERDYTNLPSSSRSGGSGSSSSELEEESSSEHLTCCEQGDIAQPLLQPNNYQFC

Regarding `CCn1nnc2c1CCC(Nc1nc3c(-c4ccc(F)cc4C)cccn3n1)C2` (stereo not drawn) [Example 51, (1-Ethyl-4,5,6,7-tetrahydro-1H-benzotriazol-5-yl)-[8-(4-fluoro-2-methyl-phenyl)-[1,2,4]triazolo[1,5-a]pyridine-2-yl]-amine], the inhibition at 10 µM at CSF1R (FMS) (setting [1]) was less than 40%; on CSF1R (FMS) (setting [2]), 9%; on MAP4K4 (HGK) (setting [3]), less than 40%; on MAP4K4 (HGK) (setting [4]) it was -8%; on AURKA (Aurora A) (setting [5]) it was less than 40%; on AURKA (Aurora A) (setting [6]), 8%.
On to `CCn1ncc2c1CC[C@@H](Nc1nc3c(-c4ccc(F)cc4C)cccn3n1)C2` [Example R-42, (R)-(1-Ethyl-4,5,6,7-tetrahydro-1H-indazol-5-yl)-[8-(4-fluoro-2-methyl-phenyl)-[1,2,4]triazolo[1,5-a]pyridine-2-yl]-amine], for which the inhibition at 10 µM at CSF1R (FMS) (setting [1]) is less than 40%; at CSF1R (FMS) (setting [2]), 31%; on MAP4K4 (HGK) (setting [3]), 40 to 80%; on MAP4K4 (HGK) (setting [4]), 56%; on AURKA (Aurora A) (setting [5]) it was less than 40%; on AURKA (Aurora A) (setting [6]), 3%.
For the molecule `CCn1ncc2c1CCC(Nc1nc3c(-c4cccnc4OC)cccn3n1)C2` (stereo not drawn) [Example 69, (1-Ethyl-4,5,6,7-tetrahydro-1H-indazol-5-yl)-[8-(2-methoxy-pyridin-3-yl)-[1,2,4]triazolo[1,5-a]pyridine-2-yl]-amine], the inhibition at 10 µM at CSF1R (FMS) (setting [1]) was less than 40%; on CSF1R (FMS) (setting [2]), 8%; on MAP4K4 (HGK) (setting [3]), less than 40%; at MAP4K4 (HGK) (setting [4]) it was 39%; on AURKA (Aurora A) (setting [5]), less than 40%; on AURKA (Aurora A) (setting [6]), 25%.
On to `CCn1nc(Cl)c2c1CCC(Nc1nc3c(-c4ccc(F)cc4C)cccn3n1)C2` (stereo not drawn) [Example 48, (3-Chloro-1-ethyl-4,5,6,7-tetrahydro-1H-indazol-5-yl)-[8-(4-fluoro-2-methyl-phenyl)-[1,2,4]triazolo[1,5-a]pyridine-2-yl]-amine], for which the inhibition at 10 µM at CSF1R (FMS) (setting [1]) is less than 40%; on CSF1R (FMS) (setting [2]), 15%; at MAP4K4 (HGK) (setting [3]), 40 to 80%; at MAP4K4 (HGK) (setting [4]), 50%; at AURKA (Aurora A) (setting [5]) it was less than 40%; at AURKA (Aurora A) (setting [6]), -14%.
Regarding `CCn1ncc2c1CCC(Nc1nc3c(-c4cccc(Cl)c4)cccn3n1)C2` (stereo not drawn) [Example 59, [8-(3-Chloro-phenyl)-[1,2,4]triazolo[1,5-a]pyridine-2-yl]-(1-ethyl-4,5,6,7-tetrahydro-1H-indazol-5-yl)-amine], the inhibition at 10 µM is 40 to 80% on CSF1R (FMS) (setting [1]); 42% on CSF1R (FMS) (setting [2]); 40 to 80% on MAP4K4 (HGK) (setting [3]); 57% on MAP4K4 (HGK) (setting [4]); less than 40% at AURKA (Aurora A) (setting [5]); -21% at AURKA (Aurora A) (setting [6]).
In the case of `CCn1ncc2c1CCC(Nc1nc3c(-c4cccnc4)cccn3n1)C2` (stereo not drawn) [Example 63, (1-Ethyl-4,5,6,7-tetrahydro-1H-indazol-5-yl)-(8-pyridin-3-yl-[1,2,4]triazolo[1,5-a]pyridine-2-yl)-amine], the inhibition at 10 µM at CSF1R (FMS) (setting [1]) is 40 to 80%; at CSF1R (FMS) (setting [2]) it was 48%; at MAP4K4 (HGK) (setting [3]), 40 to 80%; at MAP4K4 (HGK) (setting [4]) it was 48%; on AURKA (Aurora A) (setting [5]), less than 40%; at AURKA (Aurora A) (setting [6]), 29%.
In the case of `Cc1cc(F)ccc1-c1cccn2nc(NC3CCc4c(cnn4CC(C)C)C3)nc12` (stereo not drawn) [Example 45, [8-(4-fluoro-2-methyl-phenyl)-[1,2,4]triazolo[1,5-a]pyridine-2-yl]-(1-isobutyl-4,5,6,7-tetrahydro-1H-indazol-5-yl)-amine], the inhibition at 10 µM on CSF1R (FMS) (setting [1]) was 40 to 80%; at CSF1R (FMS) (setting [2]), 40%; on MAP4K4 (HGK) (setting [3]), less than 40%; at MAP4K4 (HGK) (setting [4]), 2%; on AURKA (Aurora A) (setting [5]) it was less than 40%; on AURKA (Aurora A) (setting [6]) it was -13%.
Consider `Cc1cc(F)ccc1-c1cccn2nc(NC3CCc4cnn(C)c4C3)nc12` (stereo not drawn) [Example 40, [8-(4-Fluoro-2-methyl-phenyl)-[1,2,4]triazolo[1,5-a]pyridine-2-yl]-(1-methyl-4,5,6,7-tetrahydro-1H-indazol-6-yl)-amine], for which the inhibition at 10 µM is less than 40% on CSF1R (FMS) (setting [1]); 25% at CSF1R (FMS) (setting [2]); 40 to 80% at MAP4K4 (HGK) (setting [3]); 45% at MAP4K4 (HGK) (setting [4]); less than 40% at AURKA (Aurora A) (setting [5]); 13% at AURKA (Aurora A) (setting [6]).
In the case of `CCn1ncc2c1CCC(Nc1nc3c(-c4ccccc4)cccn3n1)C2` (stereo not drawn) [Example 57, (1-Ethyl-4,5,6,7-tetrahydro-1H-indazol-5-yl)-(8-phenyl-[1,2,4]triazolo[1,5-a]pyridine-2-yl)-amine], the inhibition at 10 µM is 40 to 80% on CSF1R (FMS) (setting [1]); 72% at CSF1R (FMS) (setting [2]); 40 to 80% on MAP4K4 (HGK) (setting [3]); 58% on MAP4K4 (HGK) (setting [4]); less than 40% at AURKA (Aurora A) (setting [5]); 7% at AURKA (Aurora A) (setting [6]).
As to `CCn1ncc2c1CCC(Nc1nc3c(-c4ccccc4C)cccn3n1)C2` (stereo not drawn) [Example 56, (1-Ethyl-4,5,6,7-tetrahydro-1H-indazol-5-yl)-[8-(2-methyl-phenyl)-[1,2,4]triazolo[1,5-a]pyridine-2-yl]-amine], the inhibition at 10 µM was 40 to 80% on CSF1R (FMS) (setting [1]); 58% on CSF1R (FMS) (setting [2]); 40 to 80% on MAP4K4 (HGK) (setting [3]); 48% at MAP4K4 (HGK) (setting [4]); less than 40% on AURKA (Aurora A) (setting [5]); 27% on AURKA (Aurora A) (setting [6]).
Consider `Fc1cccc(-c2cccn3nc(Nc4ccc5[nH]cnc5c4)nc23)c1` [Cpd. 293 in WO09155551, reference compound], for which the inhibition at 10 µM on CSF1R (FMS) (setting [1]) was greater than 80%; on CSF1R (FMS) (read-out: % Inhibition mean), 90%; on MAP4K4 (HGK) (setting [3]) it was greater than 80%; at MAP4K4 (HGK) (read-out: % Inhibition mean), 95%; at AURKA (Aurora A) (setting [5]), greater than 80%; at AURKA (Aurora A) (read-out: % Inhibition mean), 89%.
